≈ marks a conversion by molar mass, not a printed value. Like-named read-outs stand apart in the source and are kept apart here.
Assays:
physchem = test: physchem
Text: This study aims to compare the influence of amino acid structure on the physicochemical properties of NSAID salts with the isopropyl ester of amino acids.

[1] = pKa / pKB by potentiometric acid-base titration and formation constant log(KS); conditions: calculated from pKA of acid and pKB of base
Method: Determination of formation constant pKs
Zabrze, Poland). For the measurement of pKA acids, 0.1 M NaOH was used. In order to
ester hydrochloride, HCl aqueous solution, was added in an amount that allowed reach-
After that, an acid-base titration was made out by adding dropwise 5 mM

[2] = system: Staphylococcus epidermidis; test: Disc diffusion antimicrobial susceptibility test, Staphylococcus epidermidis; format: cell-based; design: key to Inhibition diameter: -: no growth of the organism
Method: (§1) The plates were incubated for 24 h at 37 °C.

Micrococcus Luteus = test: Disc diffusion antimicrobial susceptibility test, Micrococcus luteus; format: cell-based; design: key to Inhibition diameter: -: no growth of the organism
Escherichia coli = test: Disc diffusion antimicrobial susceptibility test, Escherichia coli; format: cell-based; design: key to Inhibition diameter: -: no growth of the organism
Method: as §1

[3] = DTG; cited from earlier work
[4] = Thermogravimetric analysis (thermal stability)
Method: The thermal stabilities of the obtained NSAIDs isopropyl ester amino acid salts were investigated. […] The beginning of thermal degradation was evaluated based on the value of onset of the TG curve, which occurs in the first phase of the process. […]
Thermogravimetric analysis (TG)
Thermogravimetric analysis was carried out using Netzsch Proteus Thermal Analy- […]
Samples of 5–8 mg were loaded in Al2O3 […]
ment was performed in an air atmosphere (25 cm3min−1) with nitrogen flow (10 cm3min−1) […]
Differential scanning calorimetry (DSC)
Phase transformation temperatures were determined on a PerkinElmer DSC-7 (Rot-gau, Germany). The samples of 3–5 mg were loaded on the aluminum pan with a crimped lid. Measurements were carried out in a nitrogen atmosphere (20 cm3 min-1). The rate of heating/cooling was 5°C min-1. […]
tained for 30 min inside the furnace, then cooled to 0°C to condition the sample and the crucible. After that, heating was conducted to the specified temperature, followed by cool-ing. Unless otherwise stated, two complete cycles of heating and cooling were performed.
The specified maximum temperature was individual for each compound, determined from TG analysis, and it was at least 10°C lower than the onset decomposition tempera-ture. Temperatures reported from DSC data are curve peaks, the melting points being endothermic upon heating and crystallization point being exothermic upon cooling. Lead, indium, tin, and zinc were used as standards to calibrate the temperature. Indium was used for enthalpy measurement calibration. […]

[5] = n-octanol-water partition coefficient (logP), shake flask method; format: physicochemical
[6] = solution transferred to disc 25 mg cm^−3
[7] = solution transferred to disc 50 mg cm^−3
[8] = solution transferred to disc 100 mg cm^−3
[9] = solution transferred to disc 200 mg cm^−3
[10] = solution transferred to disc 400 mg cm^−3
[11] = solution transferred to disc 600 mg cm^−3
[12] = solution transferred to disc 800 mg cm^−3
[13] = solution transferred to disc 1000 mg cm^−3

SMILES	Solubility in Phosphate Buffer pH = 5.4, as active substance (physchem)	Solubility in Phosphate Buffer pH = 7.4, as active substance (physchem)	Log(KS) formation constant [1]	Inhibition diameter [2, 6]	Inhibition diameter [2, 7]	Inhibition diameter [2, 8]	Inhibition diameter [2, 9]	Inhibition diameter [2, 10]	Inhibition diameter [2, 11]	Inhibition diameter [2, 12]	Inhibition diameter [2, 13]	Inhibition diameter (Micrococcus Luteus; [6])	Inhibition diameter (Micrococcus Luteus; [7])	Inhibition diameter (Micrococcus Luteus; [8])	Inhibition diameter (Micrococcus Luteus; [9])	Inhibition diameter (Micrococcus Luteus; [10])	Inhibition diameter (Micrococcus Luteus; [11])	Inhibition diameter (Escherichia coli; [6])	Inhibition diameter (Escherichia coli; [7])	Inhibition diameter (Escherichia coli; [8])	also measured
CC(C)Cc1ccc(C(C)C(=O)O)cc1.CSCCC(N)C(=O)OC(C)C (mixture of isomers) [[L-MetOiPr][IBU]]	0.483 ± 0.011 gAS dm^−3	1.752 ± 0.001 gAS dm^−3	5.53	-	-	8.3 ± 0.1 mm	13.6 ± 0.2 mm	14.7 ± 0.2 mm	15.4 ± 0.2 mm	17.0 ± 0.2 mm	17.7 ± 0.3 mm	-	7.3 ± 0.2 mm	8.5 ± 0.2 mm	10.4 ± 0.1 mm	12.6 ± 0.1 mm	14.1 ± 0.1 mm	-	6.1 ± 0.1 mm	6.2 ± 0.1 mm	Solubility in Phosphate Buffer pH = 5.4 (physchem): 0.932 ± 0.011 g dm^−3; Solubility in Phosphate Buffer pH = 7.4 (physchem): 3.376 ± 0.001 g dm^−3; Inhibition diameter (Micrococcus Luteus; [12]): 14.3 ± 0.1 mm; Inhibition diameter (Micrococcus Luteus; [13]): 14.6 ± 0.3 mm; Inhibition diameter (Escherichia coli; [9]): 6.5 ± 0.2 mm; Inhibition diameter (Escherichia coli; [10]): 7.1 ± 0.3 mm; Inhibition diameter (Escherichia coli; [11]): 7.6 ± 0.2 mm; Inhibition diameter (Escherichia coli; [13]): 8.1 ± 0.1 mm; TDTGmax, maximum decomposition temperature [3]: 209.9 [50] °C
CC(C)Cc1ccc(C(C)C(=O)O)cc1.CC(C)OC(=O)[C@@H](N)[C@@H](C)O [[L-ThrOiPr][IBU], L-threonine isopropyl ester ibuprofenate]			6.47	7.5 ± 0.2 mm	10.5 ± 0.2 mm	15.4 ± 0.1 mm	16.9 ± 0.2 mm	17.5 ± 0.2 mm	18.3 ± 0.2 mm	19.8 ± 1.4 mm	23.2 ± 0.1 mm	7.3 ± 0.2 mm	10.4 ± 0.2 mm	15.5 ± 0.2 mm	16.3 ± 0.1 mm	17.0 ± 0.2 mm	17.5 ± 0.1 mm	-	-	-	Inhibition diameter (Micrococcus Luteus; [12]): 18.2 ± 0.2 mm; Inhibition diameter (Micrococcus Luteus; [13]): 19.3 ± 0.2 mm; Inhibition diameter (Escherichia coli; [9]): -; Inhibition diameter (Escherichia coli; [10]): -; Inhibition diameter (Escherichia coli; [11]): -; Inhibition diameter (Escherichia coli; [13]): -; TDTGmax, maximum decomposition temperature [3]: 209.9 [50] °C
CC(C)Cc1ccc(C(C)C(=O)O)cc1.CCC(C)C(N)C(=O)OC(C)C (mixture of isomers) [[L-IleOiPr][IBU]]	0.631 ± 0.002 gAS dm^−3	2.195 ± 0.021 gAS dm^−3	5.78	7.5 ± 0.2 mm	9.5 ± 0.4 mm	14.4 ± 0.2 mm	15.4 ± 0.4 mm	17.0 ± 0.2 mm	17.5 ± 0.1 mm	18.0 ± 0.1 mm	19.3 ± 0.1 mm	7.2 ± 0.2 mm	7.6 ± 0.1 mm	8.6 ± 0.1 mm	9.4 ± 0.2 mm	10.7 ± 0.1 mm	11.2 ± 0.1 mm	-	-	-	Solubility in Phosphate Buffer pH = 5.4 (physchem): 1.161 ± 0.002 g dm^−3; Solubility in Phosphate Buffer pH = 7.4 (physchem): 4.038 ± 0.021 g dm^−3; Inhibition diameter (Micrococcus Luteus; [12]): 11.6 ± 0.1 mm; Inhibition diameter (Micrococcus Luteus; [13]): 12.3 ± 0.2 mm; Inhibition diameter (Escherichia coli; [9]): 6.3 ± 0.1 mm; Inhibition diameter (Escherichia coli; [10]): 6.4 ± 0.3 mm; Inhibition diameter (Escherichia coli; [11]): 7.1 ± 0.2 mm; Inhibition diameter (Escherichia coli; [13]): 7.8 ± 0.3 mm; TDTGmax, maximum decomposition temperature [3]: 221.9 [50] °C
O=C(O)c1ccccc1O [SA, salicylic acid, reference compound]	3.862 ± 0.005 gAS dm^−3	5.757 ± 0.024 gAS dm^−3		-	-	-	-					-	-	-	-			-	-	-	Solubility in Water, as active substance (physchem): 3.795 ± 0.004 gAS dm^−3; solubility thermodynamic (physchem; pH 5.4, aqueous buffer): 3862 ± 5 µg/mL (≈ 28 mM); solubility thermodynamic (physchem; pH 7.4, aqueous buffer): 5757 ± 24 µg/mL (≈ 41.7 mM); solubility thermodynamic (physchem; water): 3795 ± 4 µg/mL (≈ 27.5 mM); TTGonset, the onset of the thermal degradation [4]: 146.2 °C; TDTGmax, maximum decomposition temperature ([4]; DTG, air atmosphere, 10 °C min−1): 198.8 °C; logP [5]: 1.32 ± 0.018; concentration from which the inhibitory effect was observed ([2]; S. epidermidis): ≥ 400 mg cm^−3; zone of inhibition at 400000 µg/mL ([2]; Staphylococcus epidermidis, 24 h, solution transferred to disc 400 mg cm^−3, read-out: Inhibition diameter): 6.2 ± 0.1 mm; zone of inhibition at 600000 µg/mL ([2]; Staphylococcus epidermidis, 24 h, solution transferred to disc 600 mg cm^−3, read-out: Inhibition diameter): 7 ± 0.2 mm; zone of inhibition at 800000 µg/mL ([2]; Staphylococcus epidermidis, 24 h, solution transferred to disc 800 mg cm^−3, read-out: Inhibition diameter): 8.6 ± 0.3 mm; zone of inhibition at 400000 µg/mL (Micrococcus Luteus; Micrococcus luteus, 24 h, solution transferred to disc 400 mg cm^−3, read-out: Inhibition diameter): 7.4 ± 0.4 mm; zone of inhibition at 600000 µg/mL (Micrococcus Luteus; Micrococcus luteus, 24 h, solution transferred to disc 600 mg cm^−3, read-out: Inhibition diameter): 8.7 ± 0.8 mm; zone of inhibition at 800000 µg/mL (Micrococcus Luteus; Micrococcus luteus, 24 h, solution transferred to disc 800 mg cm^−3, read-out: Inhibition diameter): 9.4 ± 0.8 mm; zone of inhibition at 200000 µg/mL (Escherichia coli; Escherichia coli, 24 h, solution transferred to disc 200 mg cm^−3, read-out: Inhibition diameter): 6.1 ± 0.1 mm; zone of inhibition at 400000 µg/mL (Escherichia coli; Escherichia coli, 24 h, solution transferred to disc 400 mg cm^−3, read-out: Inhibition diameter): 6.4 ± 0.1 mm; zone of inhibition at 600000 µg/mL (Escherichia coli; Escherichia coli, 24 h, solution transferred to disc 600 mg cm^−3, read-out: Inhibition diameter): 11 ± 0.8 mm

Source: PMC9693575, “Isopropyl Amino Acid Esters Ionic Liquids as Vehicles for Non-Steroidal Anti-Inflammatory Drugs in Potential Topical Drug Delivery Systems with Antimicrobial Activity” (International Journal of Molecular Sciences, 2022)
